Earlier results on one substance are cited in patent publication US20170121368A1, “NOVEL COMPOUNDS COMPRISING A BOMBESIN DERIVATIVE, A PROCESS FOR THE PREPARATION THEREOF AND A NUCLEAR MOLECULAR IMAGING AGENT COMPRISING THE SAME” (priority 2015, published 2017).

No end group written: not given here.

The test system of the series is human prostate cancer model. Conditions: 68Ga label, PET, human prostate cancer model in laboratory mice.

In the case of “GRP: Gastrin-releasing peptide labeled with 68Ga, literature PET study (VPLPAGGGTVLTKMYPRGNHWAVGHLM-NH2; ends and bridges not checked; also: 68Ga radiolabel; UniProt P07492 24-50, looked up)”, the uptake rate was 9.5 % ID/g.
